# Test results from ChEMBL document CHEMBL1201862, “PubChem BioAssay data set” (2004).
# Activity calls are given as the source filed them. For most assays here, no stated cut-off is given here; in the data, actives have a measured EC50 and inactives only a lower limit.
# Legend:
# [1] = target: T1, Rac GTPase-activating protein 1 (Homo sapiens, UniProt Q9H0H5); test: blockers of MgcRacGAP-driven Rac1 GTP hydrolysis – biochemical, ADP Hunter fluorescence, primary and confirmatory, confirmation (AID 624330); format: functional
# T1 sequence (Q9H0H5 whole entry): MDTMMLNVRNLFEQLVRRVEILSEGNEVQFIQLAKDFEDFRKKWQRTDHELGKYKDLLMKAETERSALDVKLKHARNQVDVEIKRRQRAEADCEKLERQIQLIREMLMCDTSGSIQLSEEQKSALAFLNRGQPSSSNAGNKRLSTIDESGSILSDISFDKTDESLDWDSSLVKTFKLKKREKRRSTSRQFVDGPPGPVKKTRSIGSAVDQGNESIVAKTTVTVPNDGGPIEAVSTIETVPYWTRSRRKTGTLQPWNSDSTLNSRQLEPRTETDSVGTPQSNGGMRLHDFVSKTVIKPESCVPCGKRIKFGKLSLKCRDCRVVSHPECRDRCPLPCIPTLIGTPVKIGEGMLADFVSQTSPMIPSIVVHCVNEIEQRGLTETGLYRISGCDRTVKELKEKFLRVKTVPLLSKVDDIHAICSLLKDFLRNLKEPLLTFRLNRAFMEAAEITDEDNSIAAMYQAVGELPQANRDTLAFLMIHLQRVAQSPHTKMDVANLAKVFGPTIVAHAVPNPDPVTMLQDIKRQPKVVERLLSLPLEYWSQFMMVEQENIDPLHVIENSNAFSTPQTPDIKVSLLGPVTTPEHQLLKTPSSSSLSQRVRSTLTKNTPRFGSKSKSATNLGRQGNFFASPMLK
# [2] = target: T2, Adenosylmethionine-8-amino-7-oxononanoate aminotransferase (Mycobacterium tuberculosis, UniProt P9WQ81); test: Mycobacterium tuberculosis BioA enzyme inhibitor Measured in Biochemical System Using Plate Reader - 2163-02_Inhibitor_Dose_CherryPick_Activity.; format: functional, Mycobacterium tuberculosis UT205
# T2 sequence (P9WQ81 whole entry): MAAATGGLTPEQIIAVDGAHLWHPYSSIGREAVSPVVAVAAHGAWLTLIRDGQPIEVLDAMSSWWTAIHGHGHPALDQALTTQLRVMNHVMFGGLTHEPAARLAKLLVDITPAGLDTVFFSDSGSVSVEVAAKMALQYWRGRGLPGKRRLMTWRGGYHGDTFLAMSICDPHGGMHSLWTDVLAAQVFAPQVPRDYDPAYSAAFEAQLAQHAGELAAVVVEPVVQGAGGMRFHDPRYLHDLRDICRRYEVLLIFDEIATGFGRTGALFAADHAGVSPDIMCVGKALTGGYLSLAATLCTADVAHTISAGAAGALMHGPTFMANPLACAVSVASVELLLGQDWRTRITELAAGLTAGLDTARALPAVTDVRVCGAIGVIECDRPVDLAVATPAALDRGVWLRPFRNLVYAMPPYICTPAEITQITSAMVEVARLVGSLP
# [3] = fluconazole-exposed Candida albicans growth modulators – fluorescence, retest, confirmation (AID 2467); format: functional, cell-based
# [4] = NIH-3T3 fibroblast cytotoxicity, dose response, cytotoxicity control, cell-based, fluorescence, Alamar Blue, secondary assay (AID 2327); format: functional;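 further: NIH-3T3 mouse fibroblasts cultured with fluconazole at 8 µg/mL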
# [5] = target: T3, Apoptotic protease-activating factor 1 (Homo sapiens, UniProt O14727); format: functional
# T3 sequence (O14727 whole entry): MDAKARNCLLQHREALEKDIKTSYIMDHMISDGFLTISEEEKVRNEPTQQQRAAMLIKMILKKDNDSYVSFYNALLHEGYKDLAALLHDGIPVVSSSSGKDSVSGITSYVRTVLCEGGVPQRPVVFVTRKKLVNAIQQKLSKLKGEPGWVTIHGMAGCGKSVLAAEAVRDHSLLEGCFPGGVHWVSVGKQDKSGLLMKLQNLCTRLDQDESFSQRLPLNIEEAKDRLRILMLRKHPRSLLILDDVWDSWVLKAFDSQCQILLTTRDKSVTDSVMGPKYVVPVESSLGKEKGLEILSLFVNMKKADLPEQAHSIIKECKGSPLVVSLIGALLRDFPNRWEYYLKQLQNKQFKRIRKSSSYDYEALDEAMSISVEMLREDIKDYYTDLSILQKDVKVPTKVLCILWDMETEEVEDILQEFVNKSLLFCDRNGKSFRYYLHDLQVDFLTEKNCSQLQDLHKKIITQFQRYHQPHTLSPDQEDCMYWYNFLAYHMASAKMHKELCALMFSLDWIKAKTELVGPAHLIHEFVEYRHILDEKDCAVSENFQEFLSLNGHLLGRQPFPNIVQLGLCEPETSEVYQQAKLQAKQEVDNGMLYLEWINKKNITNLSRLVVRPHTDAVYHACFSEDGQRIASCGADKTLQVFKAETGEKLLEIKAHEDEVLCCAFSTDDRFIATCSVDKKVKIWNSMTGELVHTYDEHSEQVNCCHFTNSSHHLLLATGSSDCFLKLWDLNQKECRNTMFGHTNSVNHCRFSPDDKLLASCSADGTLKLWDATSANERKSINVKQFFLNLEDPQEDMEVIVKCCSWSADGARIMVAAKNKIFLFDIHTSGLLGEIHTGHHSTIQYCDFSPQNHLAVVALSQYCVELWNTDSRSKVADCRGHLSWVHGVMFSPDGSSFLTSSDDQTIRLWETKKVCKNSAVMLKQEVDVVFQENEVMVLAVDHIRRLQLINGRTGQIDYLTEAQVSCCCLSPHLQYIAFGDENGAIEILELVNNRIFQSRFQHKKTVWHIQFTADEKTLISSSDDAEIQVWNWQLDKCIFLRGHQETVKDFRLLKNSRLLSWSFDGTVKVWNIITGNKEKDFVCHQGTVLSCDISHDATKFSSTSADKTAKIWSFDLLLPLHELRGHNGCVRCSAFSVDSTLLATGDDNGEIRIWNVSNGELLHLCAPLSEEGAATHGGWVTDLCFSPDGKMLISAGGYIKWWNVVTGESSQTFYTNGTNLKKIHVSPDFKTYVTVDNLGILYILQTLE
# [6] = alpha-synuclein stem-loop luciferase translation blockers – H4 neuroglioma cells, luminescence, confirmation (AID 1988); format: functional, cell-based
# [7] = luciferase reporter signal suppression in cells – H4 neuroglioma cells, luminescence, dose response (AID 1990); format: functional, cell-based
# [8] = Luminescence Cell-Based Dose Response HTS to Identify Inhibitors of 5'UTR Stem-Loop Driven Prion Protein mRNA Translation in H4 Neuroglioblastoma Cells. [Related pubchem assays: 1827 (Project Summary), 1813 (Primary HTS)]; format: functional
# [9] = target: T4, Ubiquitin-conjugating enzyme E2 N (Homo sapiens, UniProt P61088); format: functional;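 further: Dose-response confirmation in a TR-FRET assay detecting UBC13-driven polyubiquitin chain formation, inhibition measured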
# T4 sequence (P61088 whole entry): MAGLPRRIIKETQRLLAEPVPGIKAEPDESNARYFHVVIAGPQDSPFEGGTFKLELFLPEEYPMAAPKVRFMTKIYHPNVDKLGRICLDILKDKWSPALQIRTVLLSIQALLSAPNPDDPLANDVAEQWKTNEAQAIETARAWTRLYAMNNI
# [10] = microbe, parasite or virus in culture; format: functional; conditions: Mycobacterium tuberculosis
# INS1 = test: INS-1E survival protection against cytokine death – cell-based, luminescence, retest, dose response (AID 449756); format: functional; conditions: Rattus norvegicus;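 further: cell death triggered by IL-1 beta plus TNF-alpha plus IFN-gamma mixture; protective hits raise ATP signal compared with cytokine alone wells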
# BJ [11] = test: cells; format: functional, cell-based; conditions: Homo sapiens
# BJ [12] = test: BJ-TERT fibroblast viability loss – cell-based, RAS-independent, luminescence, dose response (AID 1933); format: functional; conditions: Homo sapiens
# [13] = DRD fibroblast viability loss – cell-based, non-viral oncogenic, luminescence, dose response (AID 1934); format: functional; conditions: Homo sapiens
# BJ [14] = test: BJ-TERT-LT-ST fibroblast viability loss – cell-based, RAS-independent, luminescence, dose response (AID 1935); format: functional; conditions: Homo sapiens;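 further: BJ fibroblasts immortalized with TERT plus LT and ST oncogenes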
# [15] = alpha-synuclein stem-loop translation blockers – luminescence, H4 neuroglioblastoma cells, dose confirmation, confirmation (AID 2454); format: functional, cell-based;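 further: H4 neuroglioblastoma cells carrying an alpha-synuclein 5'UTR luciferase reporter; potency for inhibition of the luciferase signal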
# Streptococcus = test: GAS UMAA2166 growth inhibition – luminescence, BacTiterGlo, counter-screen for streptokinase expression inhibitor project, dose response (AID 1915); format: functional, organism-based;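 further: potency for reduction of bacterial viability or growth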
# Nonstructural protein 1 = Nonstructural protein 1 (Influenza A virus, UniProt Q194T2); format: functional, Influenza A virus (A/California/07/2009(H1N1))
# Sequence of Nonstructural protein 1 (Q194T2 whole entry): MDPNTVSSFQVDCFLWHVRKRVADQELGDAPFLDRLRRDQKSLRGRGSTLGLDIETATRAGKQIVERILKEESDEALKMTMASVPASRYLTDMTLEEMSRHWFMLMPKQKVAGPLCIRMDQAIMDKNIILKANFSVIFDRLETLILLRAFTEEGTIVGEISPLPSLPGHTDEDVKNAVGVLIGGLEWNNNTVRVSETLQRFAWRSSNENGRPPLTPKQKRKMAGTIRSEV
# HEK293 = test: EBV LMP1 TES2 canonical NF-kB signalling blockers – cell-based, HEK293, luciferase, cherry-pick, dose response (AID 588343); format: functional; conditions: Homo sapiens
# [16] = target: ATP-dependent molecular chaperone HSP82 (Candida albicans (strain WO-1) (Yeast), UniProt C4YTQ8); test: steroid-induced GRE reporter decrease in yeast – S. cerevisiae, luminescence, Hsp90 inhibitor project, dose response (AID 2400); format: functional, cell-based;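 further: beta-galactosidase luminescence from glucocorticoid response element reporter as proxy for Hsp90 function; inhibitor potency where signal loss means Hsp90 inhibition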
# Sequence of ATP-dependent molecular chaperone HSP82 (C4YTQ8 whole entry): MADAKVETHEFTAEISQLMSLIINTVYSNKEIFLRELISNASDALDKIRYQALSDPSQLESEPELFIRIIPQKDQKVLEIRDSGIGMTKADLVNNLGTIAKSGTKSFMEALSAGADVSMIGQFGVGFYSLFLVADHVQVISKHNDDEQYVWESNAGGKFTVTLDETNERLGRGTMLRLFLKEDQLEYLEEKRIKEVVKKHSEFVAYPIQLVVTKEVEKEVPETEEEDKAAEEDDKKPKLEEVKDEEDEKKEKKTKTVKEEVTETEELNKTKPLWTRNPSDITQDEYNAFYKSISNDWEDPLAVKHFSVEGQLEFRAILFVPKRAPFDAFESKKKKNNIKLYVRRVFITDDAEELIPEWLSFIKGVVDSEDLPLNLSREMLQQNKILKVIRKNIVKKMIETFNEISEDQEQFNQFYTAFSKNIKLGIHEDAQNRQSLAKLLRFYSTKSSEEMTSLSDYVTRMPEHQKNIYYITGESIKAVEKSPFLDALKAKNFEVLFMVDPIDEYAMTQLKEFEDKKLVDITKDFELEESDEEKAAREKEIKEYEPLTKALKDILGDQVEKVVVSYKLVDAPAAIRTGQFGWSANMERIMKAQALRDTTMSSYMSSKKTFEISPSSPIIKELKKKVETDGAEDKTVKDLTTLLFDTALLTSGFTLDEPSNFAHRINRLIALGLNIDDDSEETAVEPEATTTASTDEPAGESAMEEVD
# Streptokinase A = target: T5, Streptokinase A (Streptococcus pyogenes serotype M1, UniProt P10520); test: viability-normalized secreted streptokinase activity reduction – plasminogen activation absorbance, OD405, dose response (AID 1914); format: functional, Streptococcus pyogenes M1 GAS;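 further: secreted streptokinase activity via plasminogen activation per viability signal from cell pellet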
# T5 sequence (P10520 whole entry): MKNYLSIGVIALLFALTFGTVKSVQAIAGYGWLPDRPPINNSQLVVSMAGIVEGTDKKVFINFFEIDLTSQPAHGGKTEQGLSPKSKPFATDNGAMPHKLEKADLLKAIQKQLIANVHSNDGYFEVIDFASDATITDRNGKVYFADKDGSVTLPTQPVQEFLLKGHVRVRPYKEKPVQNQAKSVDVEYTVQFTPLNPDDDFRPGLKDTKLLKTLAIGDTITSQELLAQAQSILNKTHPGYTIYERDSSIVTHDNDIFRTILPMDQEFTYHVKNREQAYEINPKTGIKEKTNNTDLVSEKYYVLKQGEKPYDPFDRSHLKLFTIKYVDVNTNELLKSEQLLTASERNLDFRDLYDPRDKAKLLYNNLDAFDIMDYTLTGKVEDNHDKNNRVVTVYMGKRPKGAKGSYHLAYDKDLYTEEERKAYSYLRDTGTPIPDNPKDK
# [17] = luciferase reporter signal reduction – luminescence, H4-C neuroglioblastoma cells, dose response (AID 2458); format: functional, cell-based;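 further: H4 neuroglioblastoma cells stably carrying a luciferase reporter gene fusion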
# [18] = target: T6, Serine/threonine-protein phosphatase (Candida dubliniensis (strain CD36 / CBS 7987 / NCPF 3949 / NRRLY-17841) (Yeast), UniProt B9W6M3); test: blockers of CaCl2-induced CDRE-lacZ signaling – S. cerevisiae, luminescence, secondary, dose response (AID 2388); format: functional, cell-based;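 further: yeast reporter cells carrying a calcineurin-responsive lacZ construct stimulated with calcium chloride; luminescent beta-galactosidase reporter signal in whole cells rather than isolated phosphatase activity; potency for inhibition where a drop in reporter signal means calcineurin blockade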
# T6 sequence (B9W6M3 whole entry): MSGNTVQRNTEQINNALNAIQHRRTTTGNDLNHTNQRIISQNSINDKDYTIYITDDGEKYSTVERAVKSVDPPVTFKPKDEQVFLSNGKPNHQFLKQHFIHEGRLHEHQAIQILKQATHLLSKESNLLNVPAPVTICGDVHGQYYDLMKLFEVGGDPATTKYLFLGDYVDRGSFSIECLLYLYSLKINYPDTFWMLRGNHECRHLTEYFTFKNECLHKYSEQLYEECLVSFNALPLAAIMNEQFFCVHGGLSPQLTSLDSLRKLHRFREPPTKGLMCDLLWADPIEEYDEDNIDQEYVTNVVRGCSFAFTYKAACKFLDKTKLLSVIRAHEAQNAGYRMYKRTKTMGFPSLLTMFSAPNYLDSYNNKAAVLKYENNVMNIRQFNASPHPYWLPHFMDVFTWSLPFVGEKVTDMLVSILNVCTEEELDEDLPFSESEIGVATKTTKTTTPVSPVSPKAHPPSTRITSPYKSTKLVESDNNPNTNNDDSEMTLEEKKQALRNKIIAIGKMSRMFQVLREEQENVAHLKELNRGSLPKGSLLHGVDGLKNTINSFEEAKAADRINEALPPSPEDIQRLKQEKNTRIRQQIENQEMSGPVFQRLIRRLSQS
# [19] = system: Streptococcus sp. 'group A'; test: Streptococcus pyogenes SK(-)GAS viability under kanamycin – luminescence, BacTiterGlo, confirmation, counter-screen for streptokinase expression inhibitor project, dose response (AID 1900); format: functional, organism-based
# [20] = target: Heat shock protein HSP 90-alpha (Homo sapiens, UniProt P07900); format: functional, organism-based
# cells = format: functional, cell-based
# BJ [21] = test: growth inhibition of engineered Ras-driven BJ cells – cell-based, alamar blue fluorescence, cherrypicked samples, dose response (AID 2631); format: functional; conditions: Homo sapiens;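 further: confirmatory dose-response assay in RAS-dependent BJ fibroblasts engineered with TERT, LT and ST, with cytotoxicity read by fluorescence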
smiles,measurement,setting,value
COc1ccc(NC2CCCN(C(=O)c3ccc(C(C)=O)s3)C2)cc1 (configuration not stated),IC50,[1],80.9 µM (active)
same,AC50,[2],1.99 µM (active)
COc1cc(/C=C/C(=O)Nc2cccnc2)cc(OC)c1OC,EC50,[3],> 38 µM (not active)
same,EC50,[4],> 160 µM (inactive)
same,AC50,[2],0.629 µM (active)
COc1ccc2[nH]c(=O)c(CNc3ccccc3OC)cc2c1,IC50,[5],51.4 µM (active)
COc1ccc(CNC[C@@H](CCCCN(C)Cc2ccc(OC)cc2)N2C[C@H](c3ccccc3)N(CCc3ccc(Cl)c(Cl)c3)C(=O)C2=O)cc1,EC50,[6],9.63 µM (active)
same,EC50,[7],> 120 µM (not active)
same,EC50,[8],> 120 µM (not active)
same,IC50,[5],46.4 µM (active)
same,IC50,[9],> 20 µM (inactive)
same,CC50,[10],6.46 µM (active)
same,AC50,INS1,7.7 µM (active)
O=C(c1ccc([N+](=O)[O-])o1)N(Cc1nnc(-c2ccccc2Cl)o1)C1CC1,IC50,[5],> 100 µM (inactive)
COc1ccc(-c2cc(NC=O)c3ncc(-c4cccc(C(=O)N(C)C)c4)n3c2)cn1,AC50,[2],11.2 µM (active)
COc1ccc(/C=N/NC(=O)CCn2cnc(-c3ccccc3)c2-c2ccccc2)cc1,EC50,BJ [11],46.3 µM (active)
same,EC50,BJ [12],1.9 µM (active)
same,EC50,[13],1.68 µM (active)
same,EC50,BJ [14],1.75 µM (active)
same,IC50,[5],25.2 µM (active)
O=C(N/N=C/c1cc2c3c(c1O)CCCN3CCC2)c1ccccc1O,EC50,[15],0.798 µM (active)
same,EC50,Streptococcus,12 µM (active)
same,EC50,[6],< 0.1 µM (active)
same,EC50,[7],2.89 µM (active)
same,EC50,[3],0.429 µM (active)
same,IC50,Nonstructural protein 1,3.22 µM (active)
same,EC50,[8],0.102 µM (active)
same,AC50,HEK293,5.6 µM (active)
same,EC50,[16],18.1 µM (active)
same,EC50,Streptokinase A,> 150 µM (not active)
same,EC50,[17],0.558 µM (active)
same,EC50,[18],18.2 µM (active)
same,EC50,[19],8.16 µM (active)
same,EC50,[4],23.7 µM (active)
same,AC50,[20],2.14 µM (active)
same,EC50,cells,0.687 µM (active)
same,EC50,BJ [21],22.4 µM (active)
